The source of these data is patent US4902710A, “Serotonin and norepinephrine uptake inhibitors” (Eli Lilly and Company, priority 1988, dated 1990).

Where a name gives a salt, the structure may show the parent alone.

By IC50 is commonly meant the concentration that gives 50% inhibition. High values mean weaker potency, low ones greater potency.

Test [1] concerns serotonin (5-hydroxytryptamine) uptake. The note with it: hydrochloride salt; cited from earlier work.
Another test deals with norepinephrine uptake. The conditions noted are these: hydrochloride; cited from earlier work.
The subject of test [2] is serotonin (5HT) uptake, cortical synaptosomes. In words: Synaptosomal uptake of 3H-serotonin (3H-5HT) in rat cerebral cortex synaptosomes. The class given is biochemical, Male Sprague-Dawley rats. The note with it: for IC50: inhibition of 5HT uptake in vitro, concentration needed to inhibit 50%; for percent inhibition 5HT (numbers in parentheses): at 1000 nM, compounds which failed to achieve 50% inhibition by that concentration. Here is the method: (§1) This general procedure is set forth by Wong et al., in Drug Development Research 6:397-403 (1985).
(§2) Male Sprague-Dawley rats (110-150 g) from Harlan Industries (Cumberland, Id.) were fed a Purina Chow ad libitum for at least 3 days before being used in the studies. Rats were killed by decapitation. Whole brains were removed and dissected. Cerebral cortex was homogenized in 9 volumes of a medium containing 0.32M sucrose and 10 mM glucose. Crude synaptosomal preparations were isolated after differential centrifugation at 1,000 g for 10 min. and 17,000 g for 28 min. The final pellets were suspended in the same medium and kept in ice until use within the same day.
(§3) Synaptosomal uptake of ^3 H-serotonin(^3 H-5-hydroxytryptamine, ^3 H-5HT) and ^14 C-l-norepinephrine (^14 C-NE) was determined as follows. Cortical synaptosomes (equivalent to 1 mg of protein) were incubated at 37° C. for 5 min in 1 ml of Krebs-bicarbonate medium containing also 10 mM glucose, 0.1 mM iproniazid, 1 mM ascorbic acid, 0.17 mM EDTA, […] and 100 nM^14 C-NE. The reaction mixture was immediately diluted with 2 ml of ice-chilled Krebs-bicarbonate buffer and filtered under vacuum with a cell harvester (Brandel, Gaithersburg, Md.). Filters were rinsed twice with approximately 5 ml of ice-chilled 0.9% saline and were transferred to a counting vial containing 10 ml of scintillation fluid (PCS, Amersham, Arlington Heights, Ill.). Radioactivity was measured by a liquid scintillation spectrophotometer. Accumulation of ^3 H-5HT and ^14 C-NE at 4° C. represented the background and was subtracted from all samples.

Test [3] relates to norepinephrine (NE) uptake, cortical synaptosomes. In words: Synaptosomal uptake of 14C-l-norepinephrine (14C-NE) in rat cerebral cortex synaptosomes. The class given is biochemical, Male Sprague-Dawley rats. The conditions noted are these: for IC50: inhibition of norepinephrine uptake in vitro, concentration needed to inhibit 50%; for percent inhibition NE (numbers in parentheses): at 1000 nM, compounds which failed to achieve 50% inhibition by that concentration. Here is the method: as §1, §2, §3

On to `CNCCC(Oc1ccc(C(F)(F)F)cc1)c1ccccc1` (racemic) [fluoxetine, dl-N-methyl-γ-[4-(trifluoromethyl)phenoxy]benzenepropanamine], for which the “selective serotonin uptake inhibition (in words)” value in test [1] is listed as “selective serotonin (5-hydroxytryptamine) uptake inhibitor”.
As to `CNCCC(Oc1ccccc1C)c1ccccc1.Cl` (single isomer, unassigned; (-)) [tomoxetine hydrochloride, (-)-N-methyl-γ-(2-methylphenoxy)benzenepropanamine hydrochloride], the “selective norepinephrine uptake inhibition (in words)” value with norepinephrine uptake is on record as “selective inhibitor of norepinephrine uptake”.
Consider `CNCCC(Sc1ccccc1OC)c1ccccc1` (stereo not shown) [Example 1, N-Methyl-3-[(2-methoxyphenyl)thio]benzenepropanamine hydrochloride], for which the IC50 in test [2] amounted to 270 nM; in test [3] it was 42 nM.
The corresponding values for `CNCCC(Sc1ccccc1C)c1ccccc1` (stereo not shown) [Example 2, hydrochloride] are 165 nM and 80 nM.
`CNCCC(Sc1ccc(C(F)(F)F)cc1)c1ccccc1` (stereo not shown) [Example 3, N-Methyl-3-[[4-(trifluoromethyl)phenyl]thio]benzenepropanamine hydrochloride] showed an IC50 in test [2] of 110 nM. Also, the “percent inhibition NE (numbers in parentheses)” value (“percent inhibition NE” below) in test [3] is given as 11%.
Turning to `CNCCC(c1ccccc1)[S+]([O-])c1ccc(C(F)(F)F)cc1` (stereo not shown) [Example 4, hydrochloride], in test [2], the “percent inhibition 5HT (numbers in parentheses)” value is recorded as 23%. Moreover, in test [3], the “percent inhibition NE” value is listed as 6%.
Consider `CNCCC(c1ccccc1)S(=O)(=O)c1ccc(C(F)(F)F)cc1` (stereo not shown) [Example 5, N-Methyl-3-[[4-(trifluoromethyl)phenyl]sulfonyl]benzenepropanamine hydrochloride], for which the “percent inhibition 5HT (numbers in parentheses)” value in test [2] is 5%. In addition, in test [3], the “percent inhibition NE” value worked out at 1%.
`CNCCC(Sc1cccs1)c1ccccc1` (stereo not shown) [Example 6, N-Methyl-3-(2-thienylthio)benzenepropanamine hydrochloride]: the IC50 in test [2] is 1000 nM; in test [3] it was 48 nM.
As for `CNCCC(Sc1ccc(C)s1)c1ccccc1` (stereo not shown) [Example 7, N-Methyl-3-[(5-methyl-2-thienyl)thio]benzenepropanamine hydrochloride], the IC50 in test [2] was 1000 nM; in test [3], 300 nM.
